According to ChEMBL document CHEMBL1133572, “Protease inhibitors: current status and future prospects” (J Med Chem, 2000):
Converted amounts (≈) assume the structure as drawn. Residues, ends and D or L forms follow the SMILES beside them. *: point of attachment. Cbz = O=C(OCc1ccccc1)*; CHN2 = [N-]=[N+]=C*

Legend:
[1] = Inhibitory concentration against Elastase
[2] = biological target: T1, Serine protease 1 (Homo sapiens, UniProt P07477); experiment: Inhibitory concentration against Trypsin
[3] = biological target: Plasminogen (Rattus norvegicus, UniProt Q01177); experiment: Inhibitory concentration against Plasmin
[4] = Inhibitory concentration against Chymotrypsinogen
[5] = biological target: Tryptase (Homo sapiens, UniProt Q9BZJ3+Q15661+Q9NRR2); experiment: Binding affinity against Tryptase.; assay type: protein assay
[6] = biological target: T1, Serine protease 1
[7] = The irreversible inhibitor activity by second order rate equation.; assay type: ADME
[8] = biological target: T2, Interstitial collagenase (Homo sapiens, UniProt P03956)
T2 sequence (P03956 whole entry): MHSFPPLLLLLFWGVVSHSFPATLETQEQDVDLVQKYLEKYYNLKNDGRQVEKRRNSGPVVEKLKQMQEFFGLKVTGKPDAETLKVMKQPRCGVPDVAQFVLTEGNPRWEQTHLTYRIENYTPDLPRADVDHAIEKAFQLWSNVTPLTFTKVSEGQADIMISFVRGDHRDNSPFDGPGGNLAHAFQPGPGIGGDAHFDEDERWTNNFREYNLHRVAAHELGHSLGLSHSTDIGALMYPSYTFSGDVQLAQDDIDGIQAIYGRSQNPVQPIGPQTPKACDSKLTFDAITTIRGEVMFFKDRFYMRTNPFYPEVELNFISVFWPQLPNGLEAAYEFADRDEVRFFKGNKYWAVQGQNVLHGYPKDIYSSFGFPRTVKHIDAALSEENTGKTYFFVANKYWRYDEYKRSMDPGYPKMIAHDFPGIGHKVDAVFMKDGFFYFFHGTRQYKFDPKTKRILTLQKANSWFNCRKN

[9] = biological target: Stromelysin-1 (Homo sapiens, UniProt P08254)
[10] = biological target: T3, Procathepsin L (Homo sapiens, UniProt P07711)
[11] = biological target: Cathepsin S (Homo sapiens, UniProt P25774); experiment: The apparent binding affinity against cathepsin S.; settings: read-out: Ki app
[12] = biological target: Cathepsin K (Homo sapiens, UniProt P43235); experiment: The apparent binding affinity against cathepsin K.; settings: read-out: Ki app
[13] = biological target: Cathepsin B (Homo sapiens, UniProt P07858)
[14] = biological target: Coagulation factor X (Homo sapiens, UniProt P00742)
[15] = biological target: T4, Angiotensin-converting enzyme (Homo sapiens, UniProt P12821)
[16] = biological target: T5, Neprilysin (Rattus norvegicus, UniProt P07861)
T5 sequence (P07861 whole entry): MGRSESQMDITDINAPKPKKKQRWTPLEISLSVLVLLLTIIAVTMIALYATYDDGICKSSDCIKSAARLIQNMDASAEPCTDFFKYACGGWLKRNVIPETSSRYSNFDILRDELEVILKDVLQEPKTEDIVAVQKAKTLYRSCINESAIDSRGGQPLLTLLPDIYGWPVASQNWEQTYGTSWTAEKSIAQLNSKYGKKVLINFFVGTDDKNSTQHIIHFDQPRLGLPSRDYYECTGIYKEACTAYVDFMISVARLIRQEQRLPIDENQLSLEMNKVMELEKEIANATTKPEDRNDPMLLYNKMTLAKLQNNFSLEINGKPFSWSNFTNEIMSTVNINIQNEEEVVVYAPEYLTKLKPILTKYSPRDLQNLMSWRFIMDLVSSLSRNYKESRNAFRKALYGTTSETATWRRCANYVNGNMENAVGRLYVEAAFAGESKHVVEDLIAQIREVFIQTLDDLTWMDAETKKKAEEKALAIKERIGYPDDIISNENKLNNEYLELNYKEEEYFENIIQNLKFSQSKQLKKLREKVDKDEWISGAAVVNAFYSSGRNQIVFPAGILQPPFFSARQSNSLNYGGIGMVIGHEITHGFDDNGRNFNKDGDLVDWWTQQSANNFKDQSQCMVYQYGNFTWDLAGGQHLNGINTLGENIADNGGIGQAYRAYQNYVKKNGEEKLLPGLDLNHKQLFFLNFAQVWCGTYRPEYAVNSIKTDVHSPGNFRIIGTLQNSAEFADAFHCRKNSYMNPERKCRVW

[17] = Oral bioavailability in dog; assay type: ADME, organism-based, Canis lupus familiaris; settings: in vivo
[18] = biological target: T6, Calpain-1 catalytic subunit (Homo sapiens, UniProt P07384); experiment: The binding affinity against calpain.
T6 sequence (P07384 whole entry): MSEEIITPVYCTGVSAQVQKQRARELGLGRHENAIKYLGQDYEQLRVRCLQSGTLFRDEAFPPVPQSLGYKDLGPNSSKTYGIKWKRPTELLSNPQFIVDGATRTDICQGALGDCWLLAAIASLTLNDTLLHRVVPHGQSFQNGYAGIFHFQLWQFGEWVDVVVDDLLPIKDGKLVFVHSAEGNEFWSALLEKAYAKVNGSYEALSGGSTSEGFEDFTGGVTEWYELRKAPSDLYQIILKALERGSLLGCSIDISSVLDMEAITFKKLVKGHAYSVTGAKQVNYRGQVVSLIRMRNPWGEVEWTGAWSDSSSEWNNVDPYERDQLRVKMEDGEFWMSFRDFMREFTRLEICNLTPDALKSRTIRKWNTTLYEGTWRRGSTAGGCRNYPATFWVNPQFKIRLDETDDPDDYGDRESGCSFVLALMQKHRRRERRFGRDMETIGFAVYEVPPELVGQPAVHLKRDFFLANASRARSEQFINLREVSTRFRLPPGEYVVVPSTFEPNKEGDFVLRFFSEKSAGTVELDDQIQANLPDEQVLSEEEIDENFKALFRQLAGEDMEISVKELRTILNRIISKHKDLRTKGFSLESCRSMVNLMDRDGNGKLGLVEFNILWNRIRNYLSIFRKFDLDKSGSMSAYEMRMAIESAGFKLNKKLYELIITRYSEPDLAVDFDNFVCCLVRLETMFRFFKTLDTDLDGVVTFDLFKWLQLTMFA

[19] = biological target: T4, Angiotensin-converting enzyme; experiment: oral activity against angiotensin -converting enzyme ( ACE) and neutral endopeptidase in mouse.
[20] = biological target: T3, Procathepsin L; experiment: Inhibitory activity against cathepsin L, lysosomal cysteine protease
[21] = biological target: 72 kDa type IV collagenase (Homo sapiens, UniProt P08253)
[22] = biological target: Matrilysin (Homo sapiens, UniProt P09237); experiment: Inhibition of matrix metalloprotease-7 (MMP-7).
[23] = biological target: T7, Caspase-1 (Homo sapiens, UniProt P29466)
T7 sequence (P29466 whole entry): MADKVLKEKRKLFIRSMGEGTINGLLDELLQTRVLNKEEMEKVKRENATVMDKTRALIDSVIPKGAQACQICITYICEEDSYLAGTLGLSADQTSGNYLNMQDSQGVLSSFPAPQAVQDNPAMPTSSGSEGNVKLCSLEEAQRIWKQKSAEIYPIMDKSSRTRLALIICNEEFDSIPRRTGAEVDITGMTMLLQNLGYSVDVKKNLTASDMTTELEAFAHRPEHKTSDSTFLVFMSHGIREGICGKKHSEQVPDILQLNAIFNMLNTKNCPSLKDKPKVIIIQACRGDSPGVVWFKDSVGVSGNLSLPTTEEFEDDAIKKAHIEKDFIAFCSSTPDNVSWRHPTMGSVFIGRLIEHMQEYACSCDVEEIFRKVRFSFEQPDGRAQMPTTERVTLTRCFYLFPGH

[24] = Oral bioavailability in human; assay type: ADME, organism-based; settings: in vivo

T1 sequence (P07477 whole entry): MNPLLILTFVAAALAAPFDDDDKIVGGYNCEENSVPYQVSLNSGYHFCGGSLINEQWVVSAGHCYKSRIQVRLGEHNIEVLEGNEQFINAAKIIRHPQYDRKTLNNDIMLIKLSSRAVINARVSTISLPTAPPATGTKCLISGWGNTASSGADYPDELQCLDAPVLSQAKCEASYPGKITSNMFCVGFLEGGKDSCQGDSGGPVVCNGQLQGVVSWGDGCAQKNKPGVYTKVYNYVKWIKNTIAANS
Sequence of Stromelysin-1 (P08254 whole entry): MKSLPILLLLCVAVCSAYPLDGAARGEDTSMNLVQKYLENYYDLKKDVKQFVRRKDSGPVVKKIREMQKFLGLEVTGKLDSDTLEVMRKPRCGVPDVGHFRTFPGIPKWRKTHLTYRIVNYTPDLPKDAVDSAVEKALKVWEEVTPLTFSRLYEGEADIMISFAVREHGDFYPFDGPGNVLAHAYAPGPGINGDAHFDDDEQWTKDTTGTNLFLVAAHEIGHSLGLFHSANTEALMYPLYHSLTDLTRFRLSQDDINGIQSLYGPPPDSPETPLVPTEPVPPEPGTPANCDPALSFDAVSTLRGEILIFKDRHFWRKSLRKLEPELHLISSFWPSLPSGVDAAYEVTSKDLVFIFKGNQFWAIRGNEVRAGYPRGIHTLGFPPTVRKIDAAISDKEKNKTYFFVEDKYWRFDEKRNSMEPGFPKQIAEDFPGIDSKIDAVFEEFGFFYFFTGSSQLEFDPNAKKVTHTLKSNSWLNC
T3 sequence (P07711 whole entry): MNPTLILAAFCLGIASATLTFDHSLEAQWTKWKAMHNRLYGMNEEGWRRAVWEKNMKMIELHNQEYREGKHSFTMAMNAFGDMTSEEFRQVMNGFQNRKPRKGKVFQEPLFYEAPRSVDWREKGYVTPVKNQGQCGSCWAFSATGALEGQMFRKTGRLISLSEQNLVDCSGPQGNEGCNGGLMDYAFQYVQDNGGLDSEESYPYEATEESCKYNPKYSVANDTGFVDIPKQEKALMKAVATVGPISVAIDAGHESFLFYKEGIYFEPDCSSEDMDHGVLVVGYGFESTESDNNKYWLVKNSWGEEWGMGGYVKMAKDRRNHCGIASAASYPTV
T4 sequence (P12821 whole entry): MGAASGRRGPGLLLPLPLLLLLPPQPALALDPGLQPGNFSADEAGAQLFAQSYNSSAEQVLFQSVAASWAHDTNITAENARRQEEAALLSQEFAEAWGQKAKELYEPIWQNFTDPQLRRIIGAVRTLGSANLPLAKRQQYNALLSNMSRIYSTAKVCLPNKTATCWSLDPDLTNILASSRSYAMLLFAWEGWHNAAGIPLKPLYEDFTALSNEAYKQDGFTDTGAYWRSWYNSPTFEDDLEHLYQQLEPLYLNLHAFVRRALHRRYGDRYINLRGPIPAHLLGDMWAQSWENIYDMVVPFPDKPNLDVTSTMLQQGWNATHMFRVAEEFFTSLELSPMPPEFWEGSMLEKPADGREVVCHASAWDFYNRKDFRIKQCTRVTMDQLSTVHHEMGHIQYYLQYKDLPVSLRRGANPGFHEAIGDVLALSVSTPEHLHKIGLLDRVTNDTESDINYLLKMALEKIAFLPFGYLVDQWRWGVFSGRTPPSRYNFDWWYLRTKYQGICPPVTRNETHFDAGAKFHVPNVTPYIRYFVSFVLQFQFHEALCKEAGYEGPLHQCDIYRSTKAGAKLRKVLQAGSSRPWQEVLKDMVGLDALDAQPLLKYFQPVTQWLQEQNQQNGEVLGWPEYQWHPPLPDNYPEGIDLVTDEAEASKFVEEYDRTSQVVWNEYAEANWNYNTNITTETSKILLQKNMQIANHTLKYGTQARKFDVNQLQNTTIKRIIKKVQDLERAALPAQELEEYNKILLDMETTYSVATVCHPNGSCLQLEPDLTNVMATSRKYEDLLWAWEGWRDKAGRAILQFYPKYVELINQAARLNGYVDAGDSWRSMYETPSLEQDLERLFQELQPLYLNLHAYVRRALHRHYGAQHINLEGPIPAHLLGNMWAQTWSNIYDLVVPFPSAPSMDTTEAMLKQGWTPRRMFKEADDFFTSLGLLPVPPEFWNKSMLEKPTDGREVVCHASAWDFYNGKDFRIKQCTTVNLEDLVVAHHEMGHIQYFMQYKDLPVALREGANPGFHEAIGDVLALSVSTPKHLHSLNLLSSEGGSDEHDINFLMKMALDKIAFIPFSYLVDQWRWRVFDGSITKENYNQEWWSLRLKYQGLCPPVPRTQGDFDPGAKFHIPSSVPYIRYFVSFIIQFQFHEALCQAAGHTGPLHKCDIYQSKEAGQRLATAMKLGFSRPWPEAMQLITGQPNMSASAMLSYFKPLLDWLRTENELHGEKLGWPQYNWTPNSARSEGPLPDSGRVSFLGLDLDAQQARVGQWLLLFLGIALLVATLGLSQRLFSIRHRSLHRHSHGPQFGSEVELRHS
Sequence of Coagulation factor X (P00742 41-179 limits assumed): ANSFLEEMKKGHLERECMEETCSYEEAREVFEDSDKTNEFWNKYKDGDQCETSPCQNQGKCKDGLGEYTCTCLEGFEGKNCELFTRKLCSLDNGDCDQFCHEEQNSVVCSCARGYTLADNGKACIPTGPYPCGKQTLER
Sequence of Coagulation factor X (P00742 235-488 limits assumed): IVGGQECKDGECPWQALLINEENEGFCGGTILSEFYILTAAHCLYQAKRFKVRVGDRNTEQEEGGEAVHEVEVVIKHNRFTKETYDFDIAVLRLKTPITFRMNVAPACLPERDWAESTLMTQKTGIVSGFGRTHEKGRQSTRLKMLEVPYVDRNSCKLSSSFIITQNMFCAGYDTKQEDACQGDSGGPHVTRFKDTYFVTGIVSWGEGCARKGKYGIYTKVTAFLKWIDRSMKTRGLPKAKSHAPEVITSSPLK
Sequence of 72 kDa type IV collagenase (P08253 whole entry): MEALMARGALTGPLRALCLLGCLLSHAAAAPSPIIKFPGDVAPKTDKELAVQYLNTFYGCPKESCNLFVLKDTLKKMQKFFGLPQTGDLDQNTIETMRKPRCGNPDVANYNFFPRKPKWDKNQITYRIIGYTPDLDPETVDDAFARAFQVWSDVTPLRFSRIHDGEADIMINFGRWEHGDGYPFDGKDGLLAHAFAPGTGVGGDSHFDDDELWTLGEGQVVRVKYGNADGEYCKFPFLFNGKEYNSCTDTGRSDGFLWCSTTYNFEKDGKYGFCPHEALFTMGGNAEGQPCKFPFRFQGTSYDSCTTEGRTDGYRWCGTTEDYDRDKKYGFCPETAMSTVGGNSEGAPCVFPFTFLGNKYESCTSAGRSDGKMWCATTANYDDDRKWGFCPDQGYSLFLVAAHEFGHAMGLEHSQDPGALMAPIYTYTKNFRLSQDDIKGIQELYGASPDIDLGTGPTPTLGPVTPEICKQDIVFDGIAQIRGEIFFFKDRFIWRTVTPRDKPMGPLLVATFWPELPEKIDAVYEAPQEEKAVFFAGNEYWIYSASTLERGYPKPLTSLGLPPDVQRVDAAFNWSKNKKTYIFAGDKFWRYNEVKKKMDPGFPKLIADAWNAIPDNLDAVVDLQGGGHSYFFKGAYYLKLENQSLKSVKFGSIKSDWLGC
Sequence of Plasminogen (Q01177 97-581 limits assumed): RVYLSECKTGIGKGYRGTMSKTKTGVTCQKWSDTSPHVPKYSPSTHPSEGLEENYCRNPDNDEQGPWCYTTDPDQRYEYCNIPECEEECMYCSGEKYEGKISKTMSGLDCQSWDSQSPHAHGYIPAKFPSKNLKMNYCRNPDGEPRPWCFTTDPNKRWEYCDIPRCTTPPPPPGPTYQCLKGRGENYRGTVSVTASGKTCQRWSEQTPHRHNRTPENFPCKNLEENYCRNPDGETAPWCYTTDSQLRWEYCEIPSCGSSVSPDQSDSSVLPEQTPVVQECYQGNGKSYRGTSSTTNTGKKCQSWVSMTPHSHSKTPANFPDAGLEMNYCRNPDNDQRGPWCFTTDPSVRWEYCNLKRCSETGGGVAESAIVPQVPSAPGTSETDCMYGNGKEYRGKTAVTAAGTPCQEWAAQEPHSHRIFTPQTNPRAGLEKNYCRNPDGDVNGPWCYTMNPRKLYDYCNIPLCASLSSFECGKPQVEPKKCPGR
Sequence of Plasminogen (Q01177 582-812 limits assumed): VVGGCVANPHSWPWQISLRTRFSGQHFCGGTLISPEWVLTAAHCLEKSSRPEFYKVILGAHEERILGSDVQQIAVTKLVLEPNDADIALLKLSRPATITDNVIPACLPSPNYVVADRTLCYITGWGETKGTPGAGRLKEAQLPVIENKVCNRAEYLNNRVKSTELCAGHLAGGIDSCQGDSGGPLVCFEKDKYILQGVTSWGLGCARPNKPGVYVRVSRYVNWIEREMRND
Sequence of Cathepsin K (P43235 whole entry): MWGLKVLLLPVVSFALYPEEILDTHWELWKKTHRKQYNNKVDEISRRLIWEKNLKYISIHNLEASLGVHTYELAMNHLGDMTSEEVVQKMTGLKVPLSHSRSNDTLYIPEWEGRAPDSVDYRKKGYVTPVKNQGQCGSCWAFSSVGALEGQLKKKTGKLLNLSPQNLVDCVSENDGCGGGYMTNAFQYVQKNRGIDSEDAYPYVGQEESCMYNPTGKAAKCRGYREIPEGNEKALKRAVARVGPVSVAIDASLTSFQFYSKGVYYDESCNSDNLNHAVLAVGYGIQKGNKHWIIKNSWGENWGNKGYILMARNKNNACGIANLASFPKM
Sequence of Matrilysin (P09237 whole entry): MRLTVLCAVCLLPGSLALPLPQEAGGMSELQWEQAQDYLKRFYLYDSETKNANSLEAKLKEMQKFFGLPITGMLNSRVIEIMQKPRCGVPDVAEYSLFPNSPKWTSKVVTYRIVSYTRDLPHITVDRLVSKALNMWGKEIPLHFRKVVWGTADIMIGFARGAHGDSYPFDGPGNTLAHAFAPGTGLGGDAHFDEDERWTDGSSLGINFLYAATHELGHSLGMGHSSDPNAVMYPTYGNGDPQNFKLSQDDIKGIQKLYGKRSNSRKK

## CC(=O)OCCC/C(=C1/SC(=S)N(CC(=O)O)C1=O)c1ccc(Br)cc1
[1]
  IC50: > 50 µg/mL
[2]
  IC50: 39900 nM
[3]
  IC50: > 109000 nM
[4]
  IC50: 15.6 µg/mL (≈ 34 µM)

## NCc1ccc(CNC(=O)CNC(=O)OCc2ccc(COC(=O)NCC(=O)NCc3ccc(CN)cc3)cc2)cc1
[5]
  Ki: 0.6 nM
[6]
  Ki: 84000 nM

## CC(C)C[C@H](NC(=O)N1CCNCC1)C(=O)N[C@H](C/C=C/S(=O)(=O)c1ccccc1)CCc1ccccc1
[7]
  K second: 5.7 M⁻¹ s⁻¹

## CNC(=O)[C@@H](NC(=O)[C@H](CCCCOc1ccccc1)CP(=O)(O)Cc1ccc(Cc2ccccc2)cc1)C(C)(C)C
[8]
  Ki: > 30000 nM
[9]
  Ki: 30 nM

## CC(C)C[C@H](C(=O)NCC(=O)CNS(=O)(=O)c1ccc(Oc2ccccc2)cc1)c1cccc(-c2ccccc2)c1
[10]
  Ki: > 1000 nM
[11]
  Ki: 910 nM
[12]
  Ki: 1.4 nM
[13]
  Ki: > 10000 nM

## N=C(N)c1cccc(-c2cccc([C@H](CCCNc3ccncc3)C(=O)O)c2)c1
[14]
  IC50: 270 nM

## O=C(O)C(CCc1ccccc1)N[C@@H](Cc1ccccc1)C(=O)NC[C@H](O)C(=O)O (some centres not stated)
[15]
  IC50: > 10000 nM
[16]
  IC50: 11 nM

## CCOC(=O)[C@H](CCc1ccccc1)N[C@@H](C)C(=O)N1[C@H](C(=O)O)C[C@@H]2CCC[C@@H]21
[15]
  IC50: 4 nM

## NC1CCC(CNC(=O)[C@@H]2CCCN2C(=O)[C@H](N)C(C2CCCCC2)C2CCCCC2)CC1 (some centres not stated)
[17]
  bioavailability: 90%

## CC[C@H](NC(=O)[C@H](CC(C)C)NC(=O)OCc1ccccc1)C(=O)C(=O)NCCCN1CCOCC1
[18]
  Ki: 41000 nM

## O=C(NC1CCC[C@H]2CCC[C@@H](C(=O)O)N2C1=O)[C@@H](S)Cc1ccccc1 (some centres not stated)
[15]
  IC50: 5 nM
[16]
  IC50: 8 nM

## CC(/C=C/C=C/c1ccccc1)=C1/SC(=S)N(CC(=O)O)C1=O
[1]
  IC50: 21.6 µg/mL (≈ 62.5 µM)
[2]
  IC50: 36500 nM
[3]
  IC50: > 145000 nM
[4]
  IC50: 10.8 µg/mL (≈ 31.3 µM)

## CC(=O)SC[C@@H](Cc1ccc2c(c1)OCO2)C(=O)N[C@@H](C)C(=O)OCc1ccccc1
[19]
  ED50: 0.5 mg/kg

## CCCCc1nc(Cl)c(CO)n1Cc1ccc(-c2ccccc2-c2nn[nH]n2)cc1 [LOSARTAN]
[15]
  IC50: 19 nM

## CC1(C)CCCC(NC(=O)[C@@H](S)Cc2ccccc2)C(=O)N1CC(=O)O (some centres not stated)
[15]
  IC50: 12 nM
[16]
  IC50: 63 nM

## [N-]=[N+]=CC(=O)[C@H](Cc1ccccc1)NC(=O)[C@H](Cc1ccccc1)NC(=O)OCc1ccccc1 (Cbz-Phe-Phe-CHN2)
[20]
  IC50: 50 nM

## CNC(=O)[C@@H]1CCCCN(C(=O)OC(C)(C)C)CCC[C@H](C(=O)NO)[C@@H](CC(C)C)C(=O)N1
[8]
  Ki: < 1 nM
[21]
  Ki: < 3 nM
[9]
  Ki: < 1 nM

## C[C@H](CSC(=O)c1ccccc1)C(=O)N1C[C@@H](Sc2ccccc2)C[C@H]1C(=O)O [ZOFENOPRIL]
[15]
  IC50: 0.4 nM

## COCCOCC(CC1(C(=O)N[C@H]2CC[C@@H](C(=O)O)CC2)CCCC1)C(=O)Oc1ccc2c(c1)CCC2 (some centres not stated)
[16]
  IC50: 28 nM

## O=C(NO)C1(CS(=O)(=O)c2ccc(Oc3ccc(Cl)cc3)cc2)CCOCC1 [CTS-1027]
[8]
  Ki: 590 nM
[9]
  Ki: 9.3 nM
[22]
  Ki: 1200 nM

## CC(C)C[C@@H](C=O)NC(=O)[C@H](CC(C)C)NC(=O)[C@H](CC(C)C)NC(=O)OCc1ccccc1 [MG-132] (Cbz-Leu-Leu-Leu-aldehyde)
[12]
  Ki: 1.4 nM

## CC(C)C[C@H](NC(=O)OCc1ccccc1)C(=O)NC1CCN(S(=O)(=O)c2ccc(Oc3ccccc3)cc2)CC1=O (some centres not stated)
[10]
  Ki: > 1000 nM
[13]
  Ki: > 1000 nM

## CC(=O)N[C@@H](CC(=O)O)C(=O)N[C@H]1CCC[C@H]2SC[C@@H](C(=O)N[C@H]3CC(=O)OC3O)N2C1=O (some centres not stated)
[23]
  IC50: 10400 nM

## CCC(=O)O[C@@H](O[P@](=O)(CCCCc1ccccc1)CC(=O)N1C[C@H](C2CCCCC2)C[C@H]1C(=O)O)C(C)C [FOSINOPRIL]
[15]
  IC50: 1 nM

## COC(=O)[C@H](Cc1cccc(C(=N)N)c1)[C@@H](/C=C/c1ccccc1)NC(=O)c1ccc(-c2ccc(OC)c(OC)c2)cc1
[14]
  IC50: 30 nM

## CC1=CCN(C(=O)[C@H](Cc2ccc(C(=N)N)cc2)NS(=O)(=O)c2ccc3c(c2)CN(C)CC3)[C@@H](C(=O)O)C1
[17]
  bioavailability: 45%
[6]
  Ki: 0.46 nM

## CCOC(=O)[C@H](CCc1ccccc1)N[C@H]1CCc2ccccc2N(CC(=O)O)C1=O [BENAZEPRIL]
[15]
  IC50: 1.7 nM

## CCCCNC(=O)[C@@H](C[C@H](O)[C@H](CC1CCCCC1)NC(=O)[C@H](Cc1c[nH]cn1)NC(=O)[C@H](Cc1ccccc1)CS(=O)(=O)C(C)(C)C)C(C)C
[24]
  bioavailability: < 1%

## O=CC(Cc1ccccc1)NC(=O)C(Cc1ccccc1)NC(=O)OCc1ccccc1 (stereo not drawn) (Cbz-Phe-Phe-aldehyde; configuration not given here)
[20]
  IC50: 0.74 nM

## CC(C)C[C@H](NC(=O)[C@H]1O[C@@H]1C(=O)O)C(=O)N1CCC[C@H]1C(=O)OCc1ccccc1
[7]
  K second: 8.7 M⁻¹ s⁻¹

## N=C(N)NCCC[C@H](NC(=O)c1ccc2ccccc2c1O)C(=O)N1CCC[C@H]1C(N)=O
[5]
  Ki: 840 nM

## CNC(=O)[C@@H](Cc1c(F)c(F)c(F)c(F)c1F)NC(=O)Nc1nnc(S)s1
[21]
  Ki: 3000 nM
